This is an account of results in US9856216B2, “Compounds as TNIK, IKKε and TBK1 inhibitors and pharmaceutical composition comprising same” (GREEN CROSS CORPORATION, priority 2015, dated 2018).

Molecules are shown by their SMILES. Structures can show the parent of a compound that is named as a salt.

T1 sequence (Q9UKE5 1-367 limits assumed): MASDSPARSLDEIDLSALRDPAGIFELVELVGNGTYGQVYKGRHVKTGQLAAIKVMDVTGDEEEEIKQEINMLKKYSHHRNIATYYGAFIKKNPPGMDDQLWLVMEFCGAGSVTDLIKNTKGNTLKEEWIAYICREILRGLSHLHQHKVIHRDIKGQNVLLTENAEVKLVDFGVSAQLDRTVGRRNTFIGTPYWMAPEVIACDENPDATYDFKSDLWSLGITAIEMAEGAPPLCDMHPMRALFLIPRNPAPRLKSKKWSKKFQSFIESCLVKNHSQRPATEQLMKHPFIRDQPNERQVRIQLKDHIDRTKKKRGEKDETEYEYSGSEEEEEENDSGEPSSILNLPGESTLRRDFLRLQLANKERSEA

One assay concerns the target T1, TNIK (Homo sapiens, UniProt Q9UKE5).
T1 construct: purchased Promega V4158
In words: ADP-Glo Kinase Assay, inhibition activity on TNIK. Type of assay: biochemical.
Conditions: not given
On the procedure:
The inhibition activities on TNIK, IKKε and TBK1 were measured by a luminometer, TNIK/IKKε/TBK1 Kinase Enzyme System (Promega, Ca# V4158; Invitrogen, PR8031B, Promega, Ca# V3991) and ADP-Glo Kinase Assay using ADP-Glo™ Kinase Analysis Kit (Promega, Ca# V9101) and a kinase reaction buffer [40 mM Tris(pH 7.5), 20 mM MgCl2, 0.1 mg/mL BSA] in accordance with the manufacturer's protocol.
Take `COc1cccc(-c2ccc(N)c3c2C(=O)NC3=O)c1OC` [Example 273, 4-Amino-7-(2,3-dimethoxyphenyl)isoindolin-1,3-dione]: the “TNIK (μM)” value was “Insoluble”.

Consider `COc1ccc(-c2ccc(NC(=O)c3ccccc3)c3c2CNC3=O)c(OC)c1OC` [Example 25, N-(3-oxo-7-(2,3,4-trimethoxyphenyl)isoindolin-4-yl)benzamide], for which the “TNIK (μM)” value is listed as “Insoluble”.

The assay is the same for the next values; noted with them: read-out: TNIK.
With `O=C(Nc1ccc(-c2ccc(OC(F)(F)F)cc2)c2c1C(=O)NC2)c1ccccc1` [Example 186, N-(3-oxo-7-(4-(trifluoromethoxy)phenyl)isoindolin-4-yl) benzamide], the IC50 is > 20000 nM.

For the compound `O=C(Nc1ccc(-c2ccccc2)c2c1C(=O)NC2)c1ccc(N2CCOCC2)cc1` [Example 320, 4-Morpholino-N-(3-oxo-7-phenylisoindolin-4-yl)benzamide], the IC50 was found to be 8800 nM.

`CS(=O)(=O)c1cccc(C(=O)Nc2ccc(-c3ccccc3)c3c2C(=O)NC3)c1` [Example 99, 3-(Methylsulfonyl)-N-(3-oxo-7-phenylisoindolin-4-yl) benzamide]: the IC50 worked out at 4300 nM.

Consider `COc1ccccc1Nc1ccc(NC(=O)c2ccc(NCCCN3CCCC3)cc2)c2c1CNC2=O` [Example 475, N-(7-((2-methoxyphenyl)amino)-3-oxoisoindolin-4-yl)-4-((3-(pyrrolidin-1-yl)propyl)amino)benzamide], for which the IC50 worked out at 470 nM.

For the compound `Cc1ccccc1Nc1ccc(NC(=O)c2ccc(NCCN3CCCC3)cc2)c2c1CNC2=O` [Example 473, N-(3-oxo-7-(o-tolylamino)isoindolin-4-yl)-4-((2-(pyrrolidin-1-yl)ethyl)amino)benzamide], the IC50 was 430 nM.

For the compound `COc1ccccc1-c1ccc(NC(=O)c2ccc(F)cc2)c2c1CNC2=O` [Example 141, 4-Fluoro-N-(7-(2-methoxyphenyl)-3-oxoisoindolin-4-yl) benzamide], the IC50 stood at 1600 nM.

As to `O=C(Nc1ccc(-c2cccc3[nH]cnc23)c2c1C(=O)NC2)c1ccc(F)cc1` [Example 218, N-(7-(1H-benzo[d]imidazol-4-yl)-3-oxoisoindolin-4-yl)-4-fluorobenzamide], the IC50 worked out at 590 nM.

Consider `O=C(Nc1ccc(Nc2ccccc2)c2c1C(=O)NC2)c1ccc(NCCCN2CCCC2=O)cc1` [Example 459, N-(3-oxo-7-(phenylamino)isoindolin-4-yl)-4-((3-(2-oxopyrrolidin-1-yl)propyl)amino)benzamide], for which the IC50 is 210 nM.

In the case of `COc1ccc(-c2ccc(NC(=O)c3ccccc3)c3c2CNC3=O)c(OC)c1` [Example 175, N-(7-(2,4-dimethoxyphenyl)-3-oxoisoindolin-4-yl)benzamide], the IC50 worked out at 3000 nM.

Consider `CC(=O)c1ccc(-c2ccc(N)c3c2CNC3=O)cc1` [Example 64, 4-(4-Acetylphenyl)-7-aminoisoindolin-1-one], for which the IC50 was > 20000 nM.

For the compound `Cc1ccc(C(=O)Nc2ccc(-c3ccccc3)c3c2C(=O)NC3)s1` [Example 111, 5-Methyl-N-(3-oxo-7-phenylisoindolin-4-yl)thiophene-2-carboxamide], the IC50 stood at 540 nM.

`CC(C)(C)c1ccc(-c2ccc(NC(=O)c3ccccc3)c3c2CNC3=O)cc1` [Example 3, N-(7-(4-(tert-butyl)phenyl)-3-oxoisoindolin-4-yl)benzamide]: the IC50 was > 20000 nM.

As to `CC(=O)c1ccccc1-c1ccc(NC(=O)c2ccccc2)c2c1CNC2=O` [Example 11, N-(7-(2-acetylphenyl)-3-oxoisoindolin-4-yl)benzamide], the IC50 amounted to 9500 nM.

As to `O=C(Nc1ccc(-c2ccco2)c2c1C(=O)NC2)c1ccc(NCCCN2CCOCC2)cc1` [Example 337, N-(7-(furan-2-yl)-3-oxoisoindolin-4-yl)-4-((3-morpholinopropyl)amino)benzamide], the IC50 came out at 560 nM.

Turning to `O=C(Nc1ccc(-c2cccc(F)c2F)c2c1C(=O)NC2)c1ccc(NCCN2CCCC2)cc1` [Example 365, N-(7-(2,3-difluorophenyl)-3-oxoisoindolin-4-yl)-4-((2-(pyrrolidin-1-yl)ethyl)amino)benzamide hydrochloride], the IC50 was found to be 170 nM.

In the case of `O=C(Nc1ccc(-c2ccnc3ccccc23)c2c1C(=O)NC2)c1ccc(NCCN2CCCC2)cc1` [Example 387, N-(3-oxo-7-(quinolin-4-yl)isoindolin-4-yl)-4-((2-(pyrrolidin-1-yl)ethyl)amino)benzamide], the IC50 is 33 nM.

Regarding `COCCNc1ccc(C(=O)Nc2ccc(-c3cccs3)c3c2C(=O)NC3)cc1` [Example 372, 4-((2-Methoxyethyl)amino)-N-(3-oxo-7-(thiophen-2-yl)isoindolin-4-yl)benzamide], the IC50 is 1360 nM.

As to `CN1CCN(CCCNc2ccc(C(=O)Nc3ccc(-c4ccco4)c4c3C(=O)NC4)cc2)CC1` [Example 295, N-(7-(furan-2-yl)-3-oxoisoindolin-4-yl)-4-((3-(4-methylpiperazin-1-yl)propyl)amino)benzamide], the IC50 was 520 nM.

For `CCCCC(=O)Nc1ccc(-c2ccccc2)c2c1C(=O)NC2` [Example 159, N-(3-oxo-7-phenylisoindolin-4-yl)pentanamide], the IC50 worked out at 1800 nM.

For the compound `Cc1ccc(-c2ccc(NC(=O)c3ccccc3)c3c2CNC3=O)cc1C` [Example 26, N-(7-(3,4-dimethylphenyl)-3-oxoisoindolin-4-yl)benzamide], the IC50 stood at 3800 nM.

As to `O=C(Nc1ccc(-c2cccc(F)c2F)c2c1C(=O)NC2)c1ccc(NCCN2CCOCC2)cc1` [Example 359, N-(7-(2,3-difluorophenyl)-3-oxoisoindolin-4-yl)-4-((2-morpholinoethyl)amino)benzamide], the IC50 came to 170 nM.

Turning to `COc1ccccc1Nc1ccc(NC(=O)c2ccccc2)c2c1CNC2=O` [Example 410, N-(7-((2-methoxyphenyl)amino)-3-oxoisoindolin-4-yl) benzamide], the IC50 was 450 nM.

For `Cc1ccccc1-c1ccc(NC(=O)c2ccccc2)c2c1CNC2=O` [Example 112, N-(3-oxo-7-(o-tolyl)isoindolin-4-yl)benzamide], the IC50 worked out at 2200 nM.

As to `O=C(Nc1ccc(-c2nccs2)c2c1C(=O)NC2)c1ccccc1` [Example 53, N-(3-oxo-7-(thiazol-2-yl)isoindolin-4-yl)benzamide], the IC50 was found to be 2340 nM.

As for `O=C(Nc1ccc(-c2cncnc2)c2c1C(=O)NC2)c1ccccc1` [Example 154, N-(3-oxo-7-(pyrimidin-5-yl)isoindolin-4-yl)benzamide], the IC50 was > 20000 nM.

For `O=C(Nc1ccc([N+](=O)[O-])cc1)Nc1ccc(-c2ccccc2)c2c1C(=O)NC2` [Example 235, 1-(4-Nitrophenyl)-3-(3-oxo-7-phenylisoindolin-4-yl)urea], the IC50 was found to be 4600 nM.

Take `COc1ccc(OC)c(-c2ccc(NC(=O)c3ccccc3)c3c2CNC3=O)c1` [Example 178, N-(7-(2,5-dimethoxyphenyl)-3-oxoisoindolin-4-yl)benzamide]: the IC50 is > 20000 nM.

For `Cc1cccc(Nc2ccc(NC(=O)c3ccc(NCCCN4CCCCC4)cc3)c3c2CNC3=O)c1C` [Example 472, N-(7-((2,3-dimethylphenyl)amino)-3-oxoisoindolin-4-yl)-4-((3-(piperidin-1-yl)propyl)amino)benzamide], the IC50 worked out at 410 nM.

As for `O=C(Nc1ccc(-c2ccccc2)c2c1C(=O)NC2)c1sccc1Cl` [Example 155, 3-Chloro-N-(3-oxo-7-phenylisoindolin-4-yl)thiophene-2-carboxamide], the IC50 came out at 2290 nM.

With `Cc1cc(NCCN2CCCC2)ccc1C(=O)Nc1ccc(-c2ccccc2)c2c1C(=O)NC2` [Example 309, 2-Methyl-N-(3-oxo-7-phenylisoindolin-4-yl)-4-((2-(pyrrolidin-1-yl)ethyl)amino)benzamide], the IC50 was determined as 4820 nM.

As to `O=C(Nc1ccc(-c2ccc(F)cc2F)c2c1C(=O)NC2)c1ccccc1` [Example 15, N-(7-(2,4-difluorophenyl)-3-oxoisoindolin-4-yl)benzamide], the IC50 is > 20000 nM.

Regarding `CCOc1ccc(-c2ccc(NC(=O)c3ccccc3)c3c2CNC3=O)cc1` [Example 181, N-(7-(4-ethoxyphenyl)-3-oxoisoindolin-4-yl)benzamide], the IC50 is > 20000 nM.

`O=C(Nc1ccc(-c2ccc(Cl)c(Cl)c2)c2c1C(=O)NC2)c1ccccc1` [Example 20, N-(7-(3,4-dichlorophenyl)-3-oxoisoindolin-4-yl)benzamide]: the IC50 was > 20000 nM.

As to `O=C(Nc1ccc(-c2ccccc2)c2c1C(=O)NC2)c1ccc(Br)s1` [Example 156, 5-Bromo-N-(3-oxo-7-phenylisoindolin-4-yl)thiophene-2-carboxamide], the IC50 was 2860 nM.

As for `NC1CCN(c2ccc(C(=O)Nc3ccc(-c4ccccc4)c4c3C(=O)NC4)cc2)CC1` [Example 340, 4-(4-Aminopiperidin-1-yl)-N-(3-oxo-7-phenylisoindolin-4-yl) benzamide], the IC50 came out at 680 nM.

Take `N#Cc1ccc(C(=O)Nc2ccc(-c3ccccc3)c3c2C(=O)NC3)cc1` [Example 208, 4-Cyano-N-(3-oxo-7-phenylisoindolin-4-yl)benzamide]: the IC50 was > 20000 nM.

As for `O=C(Nc1ccc(-c2cccc(C(F)(F)F)c2)c2c1C(=O)NC2)c1ccccc1` [Example 115, N-(3-oxo-7-(3-(trifluoromethyl)phenyl)isoindolin-4-yl) benzamide], the IC50 was > 20000 nM.

Regarding `Cc1ccc(C(=O)Nc2ccc(Nc3ccccc3)c3c2C(=O)NC3)cc1` [Example 417, 4-Methyl-N-(3-oxo-7-(phenylamino)isoindolin-4-yl)benzamide], the IC50 is 500 nM.

Take `O=C(Nc1ccc(-c2ccccc2)c2c1C(=O)NC2)c1ccccc1` [Example 117, N-(3-oxo-7-phenylisoindolin-4-yl)benzamide]: the IC50 was 2320 nM.

With `O=C(Nc1ccc(Nc2ccccc2Cl)c2c1C(=O)NC2)c1ccc(F)cc1` [Example 419, N-(7-((2-chlorophenyl)amino)-3-oxoisoindolin-4-yl)-4-fluorobenzamide], the IC50 was determined as 2110 nM.
